# From US6790957B2, “Triazole derivatives useful in therapy” (Pfizer, Inc., priority 1996, dated 2004)
# Read-outs that look alike come from different tables or passages of the source.
# Experiment: Aqueous solubility of phosphate prodrugs compared with parent compounds
# Assay type: physicochemical
# Settings: compounds of Examples in the form of their disodium salts
# [1] = water (aqueous), read-out: Solubility
structure (smiles),measurement,setting,value
"O=P(O)(O)OC(Cn1cncn1)(Cn1cncn1)c1ccc(F)cc1F [Example 1, 2-(2,4-Difluorophenyl)-1,3-bis(1H-1,2,4-triazol-1-yl)-2-propyl Dihydrogen Phosphate]",solubility,[1],> 150 mg/mL
"C[C@@H](c1ncncc1F)[C@@](Cn1cncn1)(OP(=O)(O)O)c1ccc(F)cc1F [Example 3, (2R,3S)-2-(2,4-Difluorophenyl)-3-(5-fluoro-4-pyrimidinyl)-1-(1H-1,2,4-triazol-1-yl)-2-butyl dihydrogen phosphate]",solubility,[1],> 150 mg/mL
"C[C@@H](c1ccc(-c2ccnn2C)cc1)[C@@](Cn1cncn1)(OP(=O)([O-])[O-])c1ccc(F)cc1F.[Na+].[Na+] [Example 8, (2R,3S)-2-(2,4-Difluorophenyl)-3-[4-(1-methylpyrazol-5-yl)phenyl]-1-(1,2,4-triazol-1-yl)-2-butyl disodium phosphate]",solubility,,>50 mg/mL
